In paper PMC6151589, “Identification of Optically Active Pyrimidine Derivatives as Selective 5-HT2C Modulators” (Molecules : A Journal of Synthetic Chemistry and Natural …, 2017):

Columns and labels:
Assay in all cases: biochemical
Parameters in all cases: species or system HEK293 or CHO; competitive radioligand binding on crude membranes, filtration and scintillation counting
[1] = biological target: T1, 5-HT1A (Homo sapiens, UniProt P08908); conditions: for Ki: read-out: Ki (nM), 1A
T1 construct: gene HTR1A; human recombinant receptor, crude membranes of HEK293 or CHO cells
T1 sequence (P08908 1-422): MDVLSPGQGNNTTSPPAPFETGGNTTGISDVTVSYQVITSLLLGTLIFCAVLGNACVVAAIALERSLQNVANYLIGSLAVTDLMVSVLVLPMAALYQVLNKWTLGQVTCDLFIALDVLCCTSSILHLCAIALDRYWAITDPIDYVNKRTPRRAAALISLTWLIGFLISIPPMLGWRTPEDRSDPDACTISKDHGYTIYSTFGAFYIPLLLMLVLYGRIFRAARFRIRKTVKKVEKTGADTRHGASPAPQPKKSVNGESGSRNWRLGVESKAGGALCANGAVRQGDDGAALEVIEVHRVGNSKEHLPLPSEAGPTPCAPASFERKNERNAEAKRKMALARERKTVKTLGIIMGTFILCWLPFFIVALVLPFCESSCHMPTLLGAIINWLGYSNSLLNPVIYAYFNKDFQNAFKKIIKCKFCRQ
Procedure: (§1) Eleven dilutions (5 × assay concentration) of the test and reference compounds (Table S1) were prepared in standard binding buffer (50 mM tris(hydroxymethyl)-aminomethane-HCl (Tris-HCl), 10 mM MgCl2, 1 mM ethylenediaminetetraacetate (EDTA), pH 7.4) by serial dilution: 0.05 nM, 0.5 nM, 1.5 nM, 5 nM, 15 nM, 50 nM, 150 nM, 500 nM, 1.5 μM, 5 μM, and 50 μM. The radioligand (Table S3) was diluted to five times the assay concentration in standard binding buffer. Aliquots ([…]) of the radioligand were dispensed into the wells of a 96-well plate containing […] of standard binding buffer. Triplicate aliquots ([…]) of the test and reference compound dilutions were then added. Finally, crude membrane fractions ([…]) of cells (HEK293 or CHO) expressing human recombinant receptors were dispensed into each well. A total of […] of the reaction mixtures was incubated at room temperature and shielded from light for 1.5 h, and was then harvested by rapid filtration onto Whatman GF/B glass fiber filters presoaked with 0.3% polyethyleneimine, by using a 96-well Brandel harvester (Gaithersburg, MD, USA). Four rapid washes were performed with chilled standard binding buffer (500 mL) to decrease nonspecific binding. Filters were placed in 6 mL scintillation tubes and allowed to dry overnight. The next day, 4-mL of EcoScint scintillation cocktail (National Diagnostics) was added to each tube. The tubes were capped, labeled, and counted by […] scintillation counting. The filter mats were dried, and the scintillant was melted onto the filters, then the radioactivity retained on the filters was counted in a Microbeta scintillation counter. The IC50 values were obtained by using the Prism 4.0 program (GraphPad Software, La Jolla, CA, USA) and were converted into Ki values. Each compound was tested at least in triplicate. With each enantiomer (R)- or (S)-5d and 5e in hand, the optically active pyrimidine derivatives 4d–4e were synthesized following the same reaction sequences (Scheme 3). Finally, compounds 4d and 4e were assessed for their binding affinity to 5-HT2 receptor subtypes by radioligand binding assays. […] A further evaluation of these compounds for other 5-HT receptor subtypes was also performed and is provided in the supplementary data (Table S2). […] Considering the potencies and selectivities of 4, we can conclude that (R,R)-4e would be a viable candidate for a selective 5-HT2C modulator.

[2] = biological target: T2, 5-HT1E (Homo sapiens, UniProt P28566); conditions: for Ki: read-out: Ki (nM), 1E
T2 construct: gene HTR1E; human recombinant receptor, crude membranes of HEK293 or CHO cells
T2 sequence (P28566 whole entry): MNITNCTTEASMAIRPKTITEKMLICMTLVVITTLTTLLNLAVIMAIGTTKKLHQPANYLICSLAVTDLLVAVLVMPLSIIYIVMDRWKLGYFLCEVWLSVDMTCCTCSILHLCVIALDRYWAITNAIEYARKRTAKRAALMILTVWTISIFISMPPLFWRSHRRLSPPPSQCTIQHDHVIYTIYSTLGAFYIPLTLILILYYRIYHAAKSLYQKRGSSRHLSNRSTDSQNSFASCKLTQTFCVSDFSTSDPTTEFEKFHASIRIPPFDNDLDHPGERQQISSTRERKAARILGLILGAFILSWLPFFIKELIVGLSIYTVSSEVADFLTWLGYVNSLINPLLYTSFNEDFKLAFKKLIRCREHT
Procedure: as §1

[3] = biological target: T3, 5-HT2C (Homo sapiens, UniProt P28335)
T3 construct: gene HTR2C; human recombinant receptor; crude membrane fractions of transfected cells (CHO-K1; HEK293 or CHO)
T3 sequence (P28335 33-458): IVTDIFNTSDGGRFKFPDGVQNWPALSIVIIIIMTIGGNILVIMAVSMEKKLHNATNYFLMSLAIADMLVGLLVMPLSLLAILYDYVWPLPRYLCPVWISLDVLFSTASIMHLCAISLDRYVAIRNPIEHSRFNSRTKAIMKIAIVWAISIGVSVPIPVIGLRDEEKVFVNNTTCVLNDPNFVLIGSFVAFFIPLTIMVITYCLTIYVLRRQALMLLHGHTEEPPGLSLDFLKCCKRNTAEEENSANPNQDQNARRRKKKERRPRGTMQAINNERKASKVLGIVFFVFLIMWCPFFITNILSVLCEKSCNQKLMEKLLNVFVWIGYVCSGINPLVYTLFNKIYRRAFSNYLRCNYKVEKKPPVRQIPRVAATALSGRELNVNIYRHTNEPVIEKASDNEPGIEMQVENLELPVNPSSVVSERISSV
Procedure: as §1

Structure (SMILES) | inhibition at 10 µM [1] | Ki [1] | inhibition at 10 µM [2] | Ki [2] | inhibition at 10 µM [3]
C[C@@H]1CNCCN1c1ncc(F)c(O[C@H](C)c2cccc(F)c2)n1 [(R,R)-4d, 5-Fluoro-4-((R)-1-(3-fluorophenyl)ethoxy)-2-((R)-2-methylpiperazin-1-yl)pyrimidine] | 78% | 98 nM | 67.5% | 1160 nM | 98.5%
C[C@@H]1CNCCN1c1ncc(F)c(O[C@H](C)c2ccc(F)cc2)n1 [(R,R)-4e, 5-Fluoro-4-((R)-1-(4-fluorophenyl)ethoxy)-2-((R)-2-methylpiperazin-1-yl)pyrimidine] | 10% |  | 42.7% |  | 94.2%
C[C@H](Oc1nc(N2CCNC[C@H]2C)ncc1F)c1cccc(F)c1 [(S,R)-4d, 5-Fluoro-4-((S)-1-(3-fluorophenyl)ethoxy)-2-((R)-2-methylpiperazin-1-yl)pyrimidine] | 67.7% | 806 nM | 29.5% |  | 97.7%
C[C@H](Oc1nc(N2CCNC[C@H]2C)ncc1F)c1ccc(F)cc1 [(S,R)-4e, 5-Fluoro-4-((S)-1-(4-fluorophenyl)ethoxy)-2-((R)-2-methylpiperazin-1-yl)pyrimidine] | 67.3% | 1120 nM |  |  | 97.8%
C[C@H](Cc1cccc(F)c1)Oc1nc(N2CCNC[C@H]2C)ncc1F [compound 3, pyrimidine analogue 3] | 89% | 353 nM | 65.6% | 1160 nM | 98.2%
